Reference: ChEMBL document CHEMBL4715854, “Discovery of Roblitinib (FGF401) as a Reversible-Covalent Inhibitor of the Kinase Activity of Fibroblast Growth Factor Receptor 4” (J Med Chem, 2020)
Converted amounts (≈) assume the structure as drawn.

Legend:
[1] = Permeability of the compound in human Caco-2 cells assessed as compound recovery at 10 uM measured after 2 hrs by LC/MS/MS analysis; format: ADME, cell-based; settings: read-out: Drug recovery
[2] = Thermodynamic solubility of compound in phosphate buffer at pH 6.8 measured after 15 mins by shake-flask method based LC-HRMS analysis; format: physicochemical; settings: read-out: Therm_solubility
[3] = Drug metabolism in rat liver microsome assessed as reduction of aldehyde group at 10 mM measured after 15 mins in presence of NADPH by LC-MS analysis; format: ADME; settings: microsomes, 10000 µM
[4] = Lipophilicity, log D of the compound in 1-octanol at pH 7.4 by potentiometric titration method; format: physicochemical
[5] = Drug metabolism in human liver microsome assessed as reduction of aldehyde group at 10 mM measured after 15 mins in presence of NADPH by LC-MS analysis; format: ADME; settings: microsomes, 10000 µM
[6] = Volume of distribution at steady state in Crl:CD (SD) rat at 1 mg/kg, iv or 3 mg/kg, po measured upto 24 hrs by LC-MS/MS analysis; format: ADME, organism-based; settings: in vivo, read-out: Vdss
[7] = Clearance in Crl:CD (SD) rat at 1 mg/kg, iv or 3 mg/kg, po measured up to 24 hrs by LC-MS/MS analysis; format: ADME, organism-based; settings: in vivo
[8] = Dose normalized AUC in Crl:CD (SD) rat at 1 mg/kg, iv measured up to 24 hrs by LC-MS/MS analysis; format: ADME, organism-based; settings: in vivo
[9] = Dose normalized AUC in Crl:CD (SD) rat at 3 mg/kg, po measured up to 24 hrs by LC-MS/MS analysis; format: ADME, organism-based; settings: in vivo
[10] = Oral bioavailability in Crl:CD (SD) rat at 3 mg/kg measured upto 24 hrs by LC-MS/MS analysis; format: ADME, organism-based; settings: in vivo; for bioavailability: Crl:CD (SD)
[11] = Aqueous solubility of compound at pH 6.8; format: physicochemical; settings: buffer, time 15 min
[12] = Half-life in Crl:CD (SD) rat at 1 mg/kg, iv or 3 mg/kg, po measured upto 24 hrs by LC-MS/MS analysis; format: ADME, organism-based; settings: in vivo
[13] = Drug metabolism in rat liver microsomes assessed as C-hydroxylation of THN mediated M3 metabolite formation incubated for 60 mins by HPLC/MS analysis; format: ADME, Microsome; settings: 1 h
[14] = AUC in Crl:CD (SD) rat at 3 mg/kg, po measured upto 24 hrs by LC-MS/MS analysis; format: ADME, organism-based; parameters: route oral, dose 3 mg/kg, time <=24; settings: in vivo
[15] = Drug metabolism in rat liver microsomes assessed as glucuronidation by measuring (2S,3S,4S,5R,6R)-6-((8-(5-cyanopyridin-2-ylcarbamoyl)-5,6,7,8-tetrahydro-1,8-naphthyridin-2-yl)methoxy)-3,4,5-trihydroxytetrahydro-2H-pyran-2-carboxylic acid metabolite formation incubated for 60 mins by HPLC/MS analysis; format: ADME, Microsome; settings: 1 h
[16] = Drug metabolism in rat feces assessed as reduction of aldehyde group measured after 20 hrs incubated under anaerobic condition measured by LC-MS analysis; format: ADME, tissue-based
[17] = AUC in Crl:CD (SD) rat at 1 mg/kg, iv formulated in PEG200/NMP measured upto 24 hrs by LC-MS/MS analysis; format: ADME, organism-based; parameters: route intravenous, dose 1 mg/kg, time <=24; settings: in vivo
[18] = Metabolic stability in rat blood at 1 uM assessed as parent compound remaining incubated for 60 mins by HPLC/MS analysis; format: ADME, tissue-based; settings: read-out: Stabilty
[19] = Drug metabolism in rat liver microsomes assessed as C-hydroxylation of THN mediated M2 metabolite formation incubated for 60 mins by HPLC/MS analysis; format: ADME, Microsome; settings: 1 h
[20] = Metabolic stability in rat liver S9 fraction at 1 uM assessed as parent compound remaining incubated for 60 mins by HPLC/MS analysis; format: ADME, subcellular; settings: read-out: Stabilty
[21] = Metabolic stability in rat plasma assessed as parent compound remaining at 1 uM incubated for 60 mins by HPLC/MS analysis; format: ADME, cell-free; settings: read-out: Stabilty
[22] = Metabolic stability in rat liver microsomes assessed as parent compound remaining incubated for 60 mins by HPLC/MS analysis; format: ADME, Microsome; settings: read-out: Stabilty
[23] = Metabolic stability in rat liver S9 fraction assessed as parent compound remaining at 1 uM incubated for 60 mins in presence of NADPH by HPLC/MS analysis; format: ADME, subcellular; settings: read-out: Stabilty
[24] = Drug metabolism in rat blood assessed as reduction of aldehyde group measured at 1 uM within 1 hr by LC-MS/MS analysis; format: ADME, tissue-based; settings: read-out: Drug metabolism
[25] = Volume of distribution at steady state in C57BL/6 mouse at 1 mg/kg, iv or 3 mg/kg, po measured upto 24 hrs by LC-MS/MS analysis; format: ADME, organism-based; settings: in vivo, read-out: Vdss
[26] = Clearance in C57BL/6 mouse at 1 mg/kg, iv or 3 mg/kg, po measured upto 24 hrs by LC-MS/MS analysis; format: ADME, organism-based; settings: in vivo
[27] = Half-life in C57BL/6 mouse at 1 mg/kg, iv or 3 mg/kg, po measured upto 24 hrs by LC-MS/MS analysis; format: ADME, organism-based; settings: in vivo
[28] = Oral bioavailability in C57BL/6 mouse at 3 mg/kg measured upto 24 hrs by LC-MS/MS analysis; format: ADME, organism-based; settings: in vivo
[29] = Plasma concentration in mouse xenografted with human RH41 cells at 30 mg/kg, po by LC-MS/MS analysis; format: ADME, organism-based; settings: in vivo
[30] = Plasma concentration in mouse xenografted with human RH30 cells at 30 mg/kg, po by LC-MS/MS analysis; format: ADME, organism-based; settings: in vivo
[31] = Drug metabolism in human Caco-2 cells assessed as depletion of parent compound at 10 uM measured after 1 hr by LC-MS/MS analysis; format: ADME, cell-based; settings: read-out: Drug degradation
[32] = Drug metabolism in human Caco-2 cells assessed as reduction of aldehyde group at 10 uM incubated from 30 to 120 mins by LC-MS/MS analysis; format: ADME, cell-based; settings: caco-2, 10 µM, time 30-120 min
[33] = Drug metabolism in human Caco-2 cells assessed as oxidation of aldehyde group at 10 uM incubated from 30 to 120 mins by LC-MS/MS analysis; format: ADME, cell-based; settings: caco-2, 10 µM, time 30-120 min
[34] = Oral bioavailability in Crl:CD (SD) rat at 3 mg/kg administered as nanosuspension formulated in CMC-5/Tween 80 measured up to 24 hrs by LC-MS/MS analysis; format: ADME, organism-based; settings: in vivo

Compound	recovery at 2 h, 10 µM [1] [%]	solubility thermodynamic at […] [2] [µM]	Drug metabolism [3]	logD [4]	Drug metabolism [5]	Vd [6] [L/kg]	clearance [7] [mL/min/kg]	AUC/dose [8] [nM·h]	AUC/dose [9] [nM·h]	bioavailability [10] [%]	half-life [12] [h]	other results
O=Cc1ccc2c(n1)N(C(=O)Nc1ccc(C(F)(F)F)cn1)CCC2	< 10	4.9 (≈ 1.72 µg/mL)	Metabolite_Detected	4.2	Metabolite_Detected	–	–	–	–	–	–	–
COCCNc1cc(NC(=O)N2CCCc3cc(-c4cnc(C)s4)c(C=O)nc32)ncc1C#N	< 10	< 6	Metabolite_Detected	–	Metabolite_Detected	1.5	8	4703	2174	46	3.5	solubility at […] [11]: < 4 µM
N#Cc1ccc(NC(=O)N2CCCc3ccc(C=O)nc32)nc1	< 10	–	Metabolite_Detected	2.9	Metabolite_Detected	3.4	44	–	–	–	1.3	Drug metabolism [13]: Metabolite_Detected; AUC [14]: 0.054 µM·h; Drug metabolism [15]: Metabolite_Detected; Drug metabolism [16]: Metabolite_Detected; AUC [17]: 1.232 µM·h; remaining at 1 h, 1 µM [18]: 22%; Drug metabolism [19]: Metabolite_Detected; remaining at 1 h, 1 µM [20]: 61%; F ([10]; 3 mg/kg, 24 h): 4%; remaining at 1 h, 1 µM [21]: 100%; remaining at 1 h [22]: 7%; remaining at 1 h, 1 µM [23]: 1%; metabolised at 1 h, 1 µM [24]: > 50%
COCCNc1cc(NC(=O)N2CCCc3cc(CO)c(C=O)nc32)ncc1C#N	< 10	–	Metabolite_Detected	–	Metabolite_Detected	–	–	–	–	–	–	Vd [25]: 1.6 L/kg; clearance [26]: 77 mL/min/kg; half-life [27]: 0.8 h; bioavailability [28]: 22%; concentration [29]: < 40 nM; concentration [30]: < 40 nM
N#Cc1cnc(NC(=O)N2CCCc3ccc(C=O)nc32)nc1	< 10	–	Metabolite_Detected	–	Metabolite_Detected	–	–	–	–	–	–	metabolised at 1 h, 10 µM [31]: 80%; Drug metabolism [32]: Metabolite_Detected; Drug metabolism [33]: Metabolite_Detected
COCCNc1cc(NC(=O)N2CCCc3cc(C(F)F)c(C=O)nc32)ncc1C#N	< 10	< 6	Metabolite_Detected	–	Metabolite_Detected	4.7	40	964	774	7	2.3	bioavailability [34]: 80%
